Assay results reported in US20220289766A1 (INFLAZOME LIMITED, priority 2019, published 2022).
Counter-ions that a name gives are not always drawn.

Tests used:
NLRP3 [1] = target: T1, NLRP3 (Homo sapiens, UniProt Q96P20); assay: THP-1 cells pyroptosis assay; assay type: cell-based; set-up: Seed THP-1 cells (25,000 cells/well) containing 1.0 μg/ml LPS in 40 μl of RPMI medium; host or cells: THP-1 cells; settings: LPS 1 μg/ml, compound 3 hrs, nigericin 5 μM 1 hr, resazurin readout
Method: THP-1 cells (ATCC #TIB-202) were grown in RPMI containing L-glutamine (Gibco #11835) supplemented with 1 mM sodium pyruvate (Sigma #S8636) and penicillin (100 units/ml)/streptomycin (0.1 mg/ml) (Sigma #P4333) in 10% Fetal Bovine Serum (FBS) (Sigma #F0804). The cells were routinely passaged and grown to confluency (˜10^6 cells/ml). On the day of the experiment, THP-1 cells were harvested and resuspended into RPMI medium (without FBS). The cells were then counted and viability ([…]) checked by Trypan blue (Sigma #T8154). Appropriate dilutions were made to give a concentration of 625,000 cells/ml. To this diluted cell solution was added LPS (Sigma #L4524) to give a 1 μg/ml Final Assay Concentration (FAC). 40 μl of the final preparation was aliquoted into each well of a 96-well plate. The plate thus prepared was used for compound screening.
The following method step-by-step assay was followed for compound screening. • 1. Seed THP-1 cells (25,000 cells/well) containing 1.0 μg/ml LPS in 40 μl of RPMI medium (without FBS) in 96-well, black walled, clear bottom cell culture plates coated with poly-D-lysine (VWR #734-0317) • 2. Add 5 μl compound (8 points half-log dilution, with 10 μM top dose) or vehicle (DMSO 0.1% FAC) to the appropriate wells • 3. Incubate for 3 hrs at 37° C., 5% CO2 • 4. Add 5 μl nigericin (Sigma #N7143) (FAC 5 μM) to all wells • 5. Incubate for 1 hr at 37° C., 5% CO2 • 6. At the end of the incubation period, spin plates at 300×g for 3 mins and remove supernatant • 7. Then add 50 μl of resazurin (Sigma #R7017) (FAC 100 μM resazurin in RPMI medium without FBS) and incubate plates for a further 1-2 hrs at 37° C. and 5% CO2 • 8. Plates were read in an Envision reader at Ex 560 nm and Em 590 nm • 9. IC50 data is fitted to a non-linear regression equation (log inhibitor vs response-variable slope 4-parameters)

NLRP3 [2] = target: T1, NLRP3; assay: Human whole blood IL-1β release assay; assay type: cell-based; set-up: Plate out 80 μl of whole blood containing 1 μg/ml of LPS in 96-well, clear bottom cell culture plate; from tissue; host or cells: human whole blood from healthy donors; settings: LPS 1 μg/ml, compound 3 hrs, nigericin 10 μM 1 hr, IL-1β by AlphaLisa, read-out: HWB IC50
Method: For systemic delivery, the ability to inhibit NLRP3 when the compounds are present within the bloodstream is of great importance. For this reason, the NLRP3 inhibitory activity of a number of compounds in human whole blood was investigated in accordance with the following protocol.
Human whole blood in Li-heparin tubes was obtained from healthy donors from a volunteer donor panel. • 1. Plate out 80 μl of whole blood containing 1 μg/ml of LPS in 96-well, clear bottom cell culture plate (Corning #3585) • 2. Add 10 μl compound (8 points half-log dilution with 10 μM top dose) or vehicle (DMSO 0.1% FAC) to the appropriate wells • 3. Incubate for 3 hrs at 37° C., 5% CO2 • 4. Add 10 μl nigericin (Sigma #N7143) (10 μM FAC) to all wells • 5. Incubate for 1 hr at 37° C., 5% CO2 • 6. At the end of the incubation period, spin plates at 300×g for 5 mins to pellet cells and remove […] of supernatant and add to 96-well v-bottom plates for IL-1β analysis (note: these plates containing the supernatants can be stored at −80° C. to be analysed at a later date) • 7. IL-1β was measured according to the manufacturer protocol (Perkin Elmer-AlphaLisa IL-1 Kit AL220F-5000) • 8. IC50 data is fitted to a non-linear regression equation (log inhibitor vs response-variable slope 4-parameters)

T1 sequence (Q96P20 whole entry): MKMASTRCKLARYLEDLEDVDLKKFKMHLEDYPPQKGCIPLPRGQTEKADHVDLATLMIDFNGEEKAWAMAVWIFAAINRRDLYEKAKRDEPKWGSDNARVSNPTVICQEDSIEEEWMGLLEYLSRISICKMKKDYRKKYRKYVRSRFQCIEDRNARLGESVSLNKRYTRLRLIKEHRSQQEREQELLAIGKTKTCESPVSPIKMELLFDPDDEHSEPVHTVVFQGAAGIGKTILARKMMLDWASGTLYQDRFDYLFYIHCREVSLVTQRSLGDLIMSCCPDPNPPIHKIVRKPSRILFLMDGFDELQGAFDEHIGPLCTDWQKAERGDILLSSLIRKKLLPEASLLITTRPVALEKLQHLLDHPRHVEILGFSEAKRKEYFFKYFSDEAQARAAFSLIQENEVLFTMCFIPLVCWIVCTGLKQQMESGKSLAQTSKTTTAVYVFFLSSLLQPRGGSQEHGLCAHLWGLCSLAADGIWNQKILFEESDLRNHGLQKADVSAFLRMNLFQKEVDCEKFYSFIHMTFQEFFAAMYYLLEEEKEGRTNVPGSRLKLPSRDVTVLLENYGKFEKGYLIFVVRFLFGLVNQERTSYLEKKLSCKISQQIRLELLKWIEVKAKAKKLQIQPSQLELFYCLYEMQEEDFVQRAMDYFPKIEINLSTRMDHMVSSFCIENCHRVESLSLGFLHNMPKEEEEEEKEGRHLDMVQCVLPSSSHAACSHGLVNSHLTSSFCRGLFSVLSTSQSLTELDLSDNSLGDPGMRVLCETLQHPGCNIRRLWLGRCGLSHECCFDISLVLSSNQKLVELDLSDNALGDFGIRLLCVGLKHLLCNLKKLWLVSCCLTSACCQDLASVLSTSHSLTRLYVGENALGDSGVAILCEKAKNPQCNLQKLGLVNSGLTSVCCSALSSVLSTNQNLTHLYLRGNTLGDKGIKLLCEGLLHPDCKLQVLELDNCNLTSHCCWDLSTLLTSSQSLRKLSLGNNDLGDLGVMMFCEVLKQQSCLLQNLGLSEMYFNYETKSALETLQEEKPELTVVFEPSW

| SMILES | IC50 (NLRP3 [1]) | IC50 (NLRP3 [2]) |
| --- | --- | --- |
| CN1CCCOc2cc(ccn2)-c2ccc3c(c2NC(=O)NS(=O)(=O)c2cc(n(C4CC4)n2)C1)CCC3 [Example 14, 17-cyclopropyl-20-methyl-24-oxa-14λ^6-thia-11,13,16,17,20, 26-hexaazapentacyclo-[23.3.1.1^15,18.0^2,10.0^5,9]triaconta-1(28),2,4,9,15,18(30),25(29),26-octaene-12,14,14-trione] | 100 to 500 nM | 1000 to 5000 nM |
| O=C1Nc2c(ccc3c2CCC3)-c2ccnc(c2)OCCCOCc2cc(nn2C2CC2)S(=O)(=O)N1 [Example 15, 17-cyclopropyl-20,24-dioxa-14λ^6-thia-11,13,16,17,26-pentaazapentacyclo-[23.3.1.1^15,18.0^2,10.0^5,9]triaconta-1(28),2,4,9,15,18(30),25(29),26-octaene-12,14,14-trione] | ≤ 100 nM | 100 to 500 nM |
| CN(C)Cc1cc2nn1CCCCCOc1cc(ccn1)-c1ccc3c(c1NC(=O)NS2(=O)=O)CCC3 [Example 17, 17-[(dimethylamino)-methyl]-24-oxa-14λ^6-thia-11,13,18,26,30-pentaazapentacyclo-[23.3.1.1^15,18.0^2,10.0^5,9]triaconta-1(28),2,4,9,15(30),16,25(29),26-octaene-12,14,14-trione] | ≤ 100 nM | 500 to 1000 nM |
| O=C1Nc2c(ccc3c2CCC3)-c2ccnc(c2)OCCCCCS(=O)(=O)N1 [Example 19, 20-oxa-14λ^6-thia-11,13,22-triazatetracyclo-[19.3.1.0^2,10.0^5,9]triaconta-1(24),2,4,9,21(25),22-hexaene-12,14,14-trione] | 500 to 1000 nM | 500 to 1000 nM |
| O=C1Nc2c(ccc3c2CCC3)-c2ccnc(c2)OCCCn2cc(F)c(n2)S(=O)(=O)N1 [Example 23, 16-fluoro-22-oxa-14λ^6-thia-11,13,18,24,28-pentaazapentacyclo-[21.3.1.1^15,18.0^2,10.0^5,9]octacosa-1(26),2,4,9,15(28),16,23(27),24-octaene-12,14,14-trione] | 100 to 500 nM | 100 to 500 nM |
| O=C1Nc2c(ccc3c2CCC3)-c2ccnc(c2)OCCn2cc(F)c(n2)S(=O)(=O)N1 [Example 25, 16-fluoro-21-oxa-14λ^6-thia-11,13,18,23,27-pentaazapentacyclo-[20.3.1.1^15,18.0^2,10.0^5,9]heptacosa-1(25),2,4,9,15(27),16,22(26),23-octaene-12,14,14-trione] | ≤ 100 nM | ≤ 100 nM |

The remaining lines, values ahead:

| IC50 (NLRP3 [1]) | IC50 (NLRP3 [2]) | SMILES |
| --- | --- | --- |
| 100 to 500 nM | 500 to 1000 nM | CN1CCOc2cc(ccn2)-c2ccc3c(c2NC(=O)NS(=O)(=O)c2ccn(n2)C(C)(C)C1)CCC3 [Example 18, 19,19,21-trimethyl-24-oxa-14λ^6-thia-11,13,18,21,26,30-hexaazapentacyclo-[23.3.1.1^15,18.0^2,10.0^5,9]triaconta-1(28),2,4,9,15(30),16,25(29),26-octaene-12,14,14-trione] |
| ≤ 100 nM | 100 to 500 nM | O=C1Nc2c(ccc3c2CCC3)-c2ccnc(c2)OCCn2ccc(n2)S(=O)(=O)N1 [Example 20, 21-oxa-14λ^6-thia-11,13,18,23,27-pentaazapentacyclo-[20.3.1.1^15,18.0^2,10.0^5,9]heptacosa-1(25),2,4,9,15(27),16,22(26),23-octaene-12,14,14-trione] |
| 100 to 500 nM | 100 to 500 nM | CN(C)Cc1cc2nn1CCCOc1cc(ccn1)-c1ccc3c(c1NC(=O)NS2(=O)=O)CCC3 [Example 22, 17-[(dimethylamino)-methyl]-22-oxa-14λ^6-thia-11,13,18,24,28-pentaazapentacyclo-[21.3.1.1^15,18.0^2,10.0^5,9]octacosa-1(26),2,4,9,15(28),16,23(27),24-octaene-12,14,14-trione] |
| ≤ 100 nM | 100 to 500 nM | Cc1cc2c(c3c1-c1ccnc(c1)OCC(C)(C)n1ccc(n1)S(=O)(=O)NC(=O)N3)CCC2 [Example 24, 3,19,19-trimethyl-21-oxa-14λ^6-thia-11,13,18,23,27-pentaazapentacyclo-[20.3.1.1^15,18.0^2,10.0^5,9]heptacosa-1(25),2(10),3,5(9),15(27),16,22(26),23-octaene-12,14,14-trione, Sodium Salt] |
